Structures can show the parent of a compound that is named as a salt.
Tests used:
[1] = molecular target: T1, recombinant guanylate cyclase reporter cell line (Rattus norvegicus, UniProt P19686+P20595); test: Action on recombinant guanylate cyclase reporter cell line; format: cell-based; details: in some cases mean values from individual determinations
T1 construct: expressed in transfected cells; host or cells: recombinant reporter cell line
T1 sequence (P19686 1-690): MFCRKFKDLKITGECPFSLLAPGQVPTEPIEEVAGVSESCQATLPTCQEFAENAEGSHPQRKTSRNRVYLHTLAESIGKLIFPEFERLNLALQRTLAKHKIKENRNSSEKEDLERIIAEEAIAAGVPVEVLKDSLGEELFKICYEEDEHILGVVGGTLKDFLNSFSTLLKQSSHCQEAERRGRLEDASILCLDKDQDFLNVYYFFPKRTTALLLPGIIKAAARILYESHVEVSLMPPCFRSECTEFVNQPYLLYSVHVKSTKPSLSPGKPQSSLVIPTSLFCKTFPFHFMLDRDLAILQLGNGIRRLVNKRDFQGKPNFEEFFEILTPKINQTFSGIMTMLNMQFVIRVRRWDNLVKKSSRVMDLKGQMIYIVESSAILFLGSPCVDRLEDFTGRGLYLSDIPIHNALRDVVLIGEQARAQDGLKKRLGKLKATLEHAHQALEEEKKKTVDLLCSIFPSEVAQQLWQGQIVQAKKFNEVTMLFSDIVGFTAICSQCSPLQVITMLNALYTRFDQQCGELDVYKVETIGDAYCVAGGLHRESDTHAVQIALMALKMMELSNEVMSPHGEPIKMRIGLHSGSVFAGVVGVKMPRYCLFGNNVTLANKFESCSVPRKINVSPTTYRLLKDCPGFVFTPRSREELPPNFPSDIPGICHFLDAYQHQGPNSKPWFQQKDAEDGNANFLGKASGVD
T1 sequence (P20595 1-619): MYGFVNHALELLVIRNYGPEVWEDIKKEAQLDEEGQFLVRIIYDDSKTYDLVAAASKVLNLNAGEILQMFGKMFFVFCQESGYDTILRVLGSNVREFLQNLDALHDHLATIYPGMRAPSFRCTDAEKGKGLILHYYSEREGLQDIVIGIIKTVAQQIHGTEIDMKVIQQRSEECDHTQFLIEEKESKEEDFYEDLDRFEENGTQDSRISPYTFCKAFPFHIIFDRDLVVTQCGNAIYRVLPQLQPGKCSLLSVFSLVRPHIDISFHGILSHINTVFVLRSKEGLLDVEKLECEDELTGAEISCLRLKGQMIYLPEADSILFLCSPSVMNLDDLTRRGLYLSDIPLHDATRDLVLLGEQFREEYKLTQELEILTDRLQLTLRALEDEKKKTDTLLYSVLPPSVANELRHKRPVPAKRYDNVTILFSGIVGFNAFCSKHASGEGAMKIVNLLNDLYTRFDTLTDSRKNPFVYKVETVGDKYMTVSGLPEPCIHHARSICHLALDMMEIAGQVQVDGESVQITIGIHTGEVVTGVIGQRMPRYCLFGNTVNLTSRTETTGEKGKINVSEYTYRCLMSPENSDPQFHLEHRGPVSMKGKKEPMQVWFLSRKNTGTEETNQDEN
Method in brief: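 Reported value is the minimal effective concentration (MEC), in some cases a mean of single runs, taken from a recombinant rat guanylate cyclase reporter cell line.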

[2] = Determination of pharmacokinetic parameters following intravenous and oral administration (rats); format: in vivo, male Wistar rats; details: intravenous administration in rats; for half-life / MRT: male, Wistar, rat, plasma, iv; for MRT: read-out: MRT
Protocol: B-6. Determination of Pharmacokinetic Parameters Following Intravenous and Oral Administration
The pharmacokinetic parameters of the compounds according to the invention are determined in male CD-1 mice, male Wistar rats and female beagles. Intravenous administration in the case of mice and rats is carried out by means of a species-specific plasma/DMSO formulation, and in the case of dogs by means of a water/PEG400/ethanol formulation. In all species, oral administration of the dissolved substance is performed via gavage, based on a water/PEG400/ethanol formulation. The taking of blood from rats is simplified by inserting a silicone catheter into the right Vena jugularis externa prior to substance administration. The operation is carried out at least one day prior to the experiment with […] and administration of an analgesic (atropin/Rimadyl (3/1) 0.1 ml s.c.). The blood is taken (generally more than 10 time points) within a time window including terminal time points of at least 24 to a maximum of 72 hours after substance administration. When the blood is taken, it is passed into heparinised tubes. Then the blood plasma is obtained by centrifugation and is optionally stored at −20° C. until further processing.
An internal standard (which may also be a chemically unrelated substance) is added to the samples of the compounds according to the invention, calibration samples and qualifiers, and there follows protein precipitation by means of excess acetone. Addition of a buffer solution matched to the LC conditions, and subsequent vortexing, is followed by centrifugation at 1000 g. The supernatant is analysed by LC-MS/MS using C18 reversed-phase columns and variable mobile phase mixtures. The substances are quantified via the peak heights or areas from extracted ion chromatograms of specific selected ion monitoring experiments.
The plasma concentration/time plots determined are used to calculate the pharmacokinetic parameters such as AUC, Cmax, t1/2 (terminal half life), F (bioavailability), MRT (mean residence time) and CL (clearance), using a validated pharmacokinetic calculation program.
Since the substance quantification is carried out in plasma, it is necessary to determine the blood/plasma distribution of the substance in order to be able to adjust the pharmacokinetic parameters correspondingly. For this purpose, a defined amount of substance is incubated in heparinized whole blood of the species in question in a rocking roller mixture for 20 min. After centrifugation at 1000 g, the plasma concentration is measured (by means of LC-MS/MS; see above) and determined by calculating the ratio of the Cblood/Cplasma value.

SMILES	MEC (minimal effective concentration) [1] [µM]	AUCnorm [2] [kg·h/L]	CLblood [2] [mL/min/kg]	half-life [2] [h]	MRT [2] [h]
Cc1nc2c(OCc3c(F)cccc3F)cccn2c1C(=O)NC(CN)c1ccc(F)cc1 (single isomer, unassigned; enantiomer b) [Example 10, ent-N-[2-Amino-1-(4-fluorophenyl)ethyl]-8-[(2,6-difluorobenzyl)oxy]-2-methylimidazo[1,2-a]-pyridine-3-carboxamide (Enantiomer B)]	0.30	2.26	12.3	4.8	6.9
CCCC(C)(N)CNC(=O)c1c(C)nc2c(OCc3cccc(F)c3F)cc(C)cn12 (racemic) [Example 303, rac-N-(2-amino-2-methylpentyl)-8-[(2,3-difluorobenzyl)oxy]-2,6-dimethylimidazo[1,2-a]pyridine-3-carboxamide]	0.20	0.26	45.7	5.7	8.2
Cc1cc(OCc2c(F)cccc2F)c2nc(C)c(C(=O)NCC3(N)CCCCC3)n2c1 [Example 307, N-[(1-aminocyclohexyl)methyl]-8-[(2,6-difluorobenzyl)oxy]-2,6-dimethylimidazo[1,2-a]pyridine-3-carboxamide]	0.65	0.35	29.7	6.9	9.8
Cc1nc2c(OCc3c(F)cccc3F)cc(Cl)cn2c1C(=O)NCC(C)(C)N [Example 73, N-(2-Amino-2-methylpropyl)-6-chloro-8-[(2,6-difluorobenzyl)oxy]-2-methylimidazo[1,2-a]-pyridine-3-carboxamide]	0.30	1.55	8.5	8.6	11.8
Cc1cc(OCc2c(F)cccc2F)c2nc(C)c(C(=O)NC[C@H]3CCCCN3)n2c1 [Example 173, 8-[(2,6-Difluorobenzyl)oxy]-2,6-dimethyl-N-[(2R)-piperidin-2-ylmethyl]imidazo[1,2-a]pyridine-3-carboxamide]	0.30	0.54	28	3.3	3.9
Cc1nc2c(OCc3c(F)cccc3F)cc(Cl)cn2c1C(=O)NCC1(N)CCC1 [Example 155, N-[(1-aminocyclobutyl)methyl]-6-chloro-8-[(2,6-difluorobenzyl)oxy]-2-methylimidazo[1,2-a]-pyridine-3-carboxamide trifluoroacetate]	0.30	0.97	21.2	7.7	11.2
Cc1nc2c(OCc3c(F)cccc3F)cc(Cl)cn2c1C(=O)NCC(N)C(C)C (single isomer, unassigned) [Example 211, ent-N-(2-Amino-3-methylbutyl)-6-chloro-8-[(2,6-difluorobenzyl)oxy]-2-methylimidazo[1,2-a]-pyridine-3-carboxamide]	0.30	0.78	17.8	4.8	6.6
Cc1nc2c(OCc3c(F)cccc3F)cccn2c1C(=O)NC(CN)CCCC(F)(F)F (racemic) [Example 4, rac-N-(1-amino-6,6,6-trifluorohexan-2-yl)-8-[(2,6-difluorobenzyl)oxy]-2-methylimidazo[1,2-a]pyridine-3-carboxamide]		0.58	27.8	5.2	6.7
CCOCC(CN)NC(=O)c1c(C)nc2c(OCc3c(F)cccc3F)cc(Cl)cn12 (single isomer, unassigned) [Example 57, ent-N-(1-amino-3-ethoxypropan-2-yl)-6-chloro-8-[(2,6-difluorobenzyl)oxy]-2-methylimidazo[1,2-a]-pyridine-3-carboxamide]	0.30				
Cc1nc2c(OCc3c(F)cccc3F)cccn2c1C(=O)NCC1(N)CC1 [Example 38, N-[(1-aminocyclopropyl)methyl]-8-[(2,6-difluorobenzyl)oxy]-2-methylimidazo[1,2-a]-pyridine-3-carboxamide]	0.40				
Cc1cc(OCc2c(F)cccc2F)c2nc(C)c(C(=O)NCC(N)c3ccc4ncccc4c3)n2c1 (racemic) [Example 372, rac-N-[2-amino-2-(quinolin-6-yl)ethyl]-8-[(2,6-difluorobenzyl)oxy]-2,6-dimethylimidazo[1,2-a]pyridine-3-carboxamide]	3.00				
Cc1cc(OCc2c(F)cccc2F)c2nc(C)c(C(=O)NCC(C)(N)C(F)(F)F)n2c1 (single isomer, unassigned) [Example 240, ent-N-(2-Amino-3,3,3-trifluoro-2-methylpropyl)-8-[(2,6-difluorobenzyl)oxy]-2,6-dimethylimidazo-[1,2-a]pyridine-3-carboxamide]	0.30				
Cc1nc2c(OCc3c(F)cccc3F)cccn2c1C(=O)NCC(C)(N)CC(C)C (single isomer, unassigned) [Example 203, ent-N-(2-Amino-2,4-dimethylpentyl)-8-[(2,6-difluorobenzyl)oxy]-2-methylimidazo[1,2-a]pyridine-3-carboxamide]	0.10				
Cc1nc2c(OCC3CCCCC3)cccn2c1C(=O)NC(CN)c1ccc(F)c(F)c1 (single isomer, unassigned) [Example 179, ent-N-[2-Amino-1-(3,4-difluorophenyl)ethyl]-8-(cyclohexylmethoxy)-2-methylimidazo[1,2-a]-pyridine-3-carboxamide]	1.00				
COC(=O)[C@@H](N)CCCCNC(=O)c1c(C)nc2c(OCc3c(F)cccc3F)cc(C)cn12 [Example 294, Methyl N^6-({8-[(2,6-difluorobenzyl)oxy]-2,6-dimethylimidazo[1,2-a]pyridin-3-yl}carbonyl)-L-lysinate]	0.065				
Cc1nc2c(OCc3c(F)cccc3F)cccn2c1C(=O)NCC1CCc2ccccc2N1 (racemic) [Example 250, rac-8-[(2,6-Difluorobenzyl)oxy]-2-methyl-N-(1,2,3,4-tetrahydroquinolin-2-ylmethyl)imidazo[1,2-a]pyridine-3-carboxamide]	1.00				
